# Laboratory results taken from patent US20260315494A1, “TREATMENT OF BREAST TISSUE” (Havah Therapeutics Pty Ltd, priority 2023, published 2026).
# Several values for one entry are separate records, joined by “and”; a condition that tells them apart may be missing. Equal values may be shown once.
# Assay: Single-dose pharmacokinetics of T+Ai pellet implant (80 mg testosterone + 4 mg anastrozole, subcutaneous)
# Details: for concentration at 24 h: 24 h post-dose
# Protocol: The premenopausal women were aged between 35 and 55 years of age with a BMI range of 20-30 kg/m^2. […] The implant was intended to be left in situ and was expected to be almost completely absorbed within three months following insertion.
# A total of 11 subjects were dosed with the implant and included in the safety analysis set. All 11 subjects were included in the pharmacokinetics (PK) analysis set.
# (NB: the sample collection time point at 6 hours post-dose was added for the third and subsequent subject and so serum measurements were not determined for the first two subjects as noted below).
# Patients seeking treatment with the T+Ai for reduction in high MBD were eligible for the study. Following successful screening, subjects attended the Wellend Health Clinic for dosing. The trial was designed to dose all subjects while in the luteal phase of their menstrual cycle to avoid the highly changing hormonal environment of the follicular phase. Following insertion of the implant, PK blood sampling was carried out for a duration of three months (see below). Briefly, samples were taken repeatedly on the day of dosing, daily during the first week, weekly for the next four weeks and every second week during the last eight weeks of a total sampling period of three months.
# The sampling schedule was revised with the addition of one blood sample (at 6 hours post-dose as discussed above), and no adjustment of the timing of existing time points was made. The duration of sampling was not extended.
# Following dosing on Day 1, blood samples were taken pre-dose (within one hour of dosing) and at 1, 2, 4, 6, 8 and 12 hours. Participants returned for a blood sample to be taken at 9 am in the morning on Days 2, 3, 4, 5, 8, 15, 22, 29, 43, 57, 71 and 85.
smiles,measurement,setting,value
"CC(C)(C#N)c1cc(Cn2cncn2)cc(C(C)(C)C#N)c1 [Anastrozole, 2,2′-[5-(1H-1,2,4-triazol-1-ylmethyl)-1,3-phenylene]bis(2-methylpropanenitrile)]",anastrozole level versus conventional full oral dosing,compared with conventional full oral dosing,5 times lower
same,Tmax,"human, in vivo, sc, 4 mg",24 to 72 h
same,concentration at 1008 h,"human, in vivo, sc, 4 mg, Measured serum anastrozole, GeoMean, geometric mean (BLQ excluded), 1008 h post-dose",0.49 ng/mL
same,concentration at 1344 h,"human, in vivo, sc, 4 mg, Measured serum anastrozole, GeoMean, geometric mean (BLQ excluded), 1344 h post-dose",0.3 ng/mL
same,concentration at 1680 h,"human, in vivo, sc, 4 mg, Measured serum anastrozole, GeoMean, geometric mean (BLQ excluded), 1680 h post-dose",0.26 ng/mL
same,concentration at 2016 h,"human, in vivo, sc, 4 mg, Measured serum anastrozole, GeoMean, geometric mean (BLQ excluded), 2016 h post-dose",0.21 ng/mL
same,concentration at 1 h,"human, in vivo, sc, 4 mg, Measured serum anastrozole, GeoMean, geometric mean, 1 h post-dose",0.35 ng/mL
same,concentration at 2 h,"human, in vivo, sc, 4 mg, Measured serum anastrozole, GeoMean, geometric mean, 2 h post-dose",0.61 ng/mL
same,concentration at 4 h,"human, in vivo, sc, 4 mg, Measured serum anastrozole, GeoMean, geometric mean, 4 h post-dose",1.15 ng/mL
same,concentration at 6 h,"human, in vivo, sc, 4 mg, Measured serum anastrozole, GeoMean, geometric mean, 6 h post-dose",2.31 ng/mL
same,concentration at 8 h,"human, in vivo, sc, 4 mg, Measured serum anastrozole, GeoMean, geometric mean, 8 h post-dose",3.23 ng/mL
same,concentration at 12 h,"human, in vivo, sc, 4 mg, Measured serum anastrozole, GeoMean, geometric mean, 12 h post-dose",3.97 ng/mL
same,concentration at 24 h,"human, in vivo, sc, 4 mg, Measured serum anastrozole, GeoMean, geometric mean",4.77 ng/mL
same,concentration at 48 h,"human, in vivo, sc, 4 mg, Measured serum anastrozole, GeoMean, geometric mean, 48 h post-dose",4.98 ng/mL
same,concentration at 72 h,"human, in vivo, sc, 4 mg, Measured serum anastrozole, GeoMean, geometric mean, 72 h post-dose",4.92 ng/mL
same,concentration at 96 h,"human, in vivo, sc, 4 mg, Measured serum anastrozole, GeoMean, geometric mean, 96 h post-dose",4.58 ng/mL
same,concentration at 168 h,"human, in vivo, sc, 4 mg, Measured serum anastrozole, GeoMean, geometric mean, 168 h post-dose",3.5 ng/mL
same,concentration at 504 h,"human, in vivo, sc, 4 mg, Measured serum anastrozole, GeoMean, geometric mean, 504 h post-dose",1.42 ng/mL
same,concentration at 24 h,"human, in vivo, sc, 4 mg, Measured serum anastrozole, individual subject",6.08 ng/mL
same,concentration at 48 h,"human, in vivo, sc, 4 mg, Measured serum anastrozole, individual subject, 48 h post-dose",6.17 ng/mL
same,concentration at 72 h,"human, in vivo, sc, 4 mg, Measured serum anastrozole, individual subject, 72 h post-dose",4.94 ng/mL
same,concentration at 96 h,"human, in vivo, sc, 4 mg, Measured serum anastrozole, individual subject, 96 h post-dose",4.36 ng/mL
same,concentration at 168 h,"human, in vivo, sc, 4 mg, Measured serum anastrozole, individual subject, 168 h post-dose",2.84 ng/mL
same,concentration at 1 h,"human, in vivo, sc, 4 mg, Measured serum anastrozole, mean, 1 h post-dose",0.38 ng/mL
same,concentration at 2 h,"human, in vivo, sc, 4 mg, Measured serum anastrozole, mean, 2 h post-dose",0.7 ng/mL
same,concentration at 4 h,"human, in vivo, sc, 4 mg, Measured serum anastrozole, mean, 4 h post-dose",1.37 ng/mL
same,concentration at 6 h,"human, in vivo, sc, 4 mg, Measured serum anastrozole, mean, 6 h post-dose",2.58 ng/mL
same,concentration at 8 h,"human, in vivo, sc, 4 mg, Measured serum anastrozole, mean, 8 h post-dose",3.44 ng/mL
same,concentration at 12 h,"human, in vivo, sc, 4 mg, Measured serum anastrozole, mean, 12 h post-dose",4.06 ng/mL
same,concentration at 24 h,"human, in vivo, sc, 4 mg, Measured serum anastrozole, mean",4.84 ng/mL
same,concentration at 48 h,"human, in vivo, sc, 4 mg, Measured serum anastrozole, mean, 48 h post-dose",5.06 ng/mL
same,concentration at 72 h,"human, in vivo, sc, 4 mg, Measured serum anastrozole, mean, 72 h post-dose",4.96 ng/mL
same,concentration at 96 h,"human, in vivo, sc, 4 mg, Measured serum anastrozole, mean, 96 h post-dose",4.62 ng/mL
same,concentration at 168 h,"human, in vivo, sc, 4 mg, Measured serum anastrozole, mean, 168 h post-dose",3.57 ng/mL
same,concentration at 504 h,"human, in vivo, sc, 4 mg, Measured serum anastrozole, mean, 504 h post-dose",1.47 ng/mL
same,concentration at 1008 h,"human, in vivo, sc, 4 mg, Measured serum anastrozole, mean, 1008 h post-dose",0.49 ng/mL
same,concentration at 1344 h,"human, in vivo, sc, 4 mg, Measured serum anastrozole, mean, 1344 h post-dose",0.22 ng/mL
same,concentration at 1680 h,"human, in vivo, sc, 4 mg, Measured serum anastrozole, mean, 1680 h post-dose",0.1 ng/mL
same,concentration at 2016 h,"human, in vivo, sc, 4 mg, Measured serum anastrozole, mean, 2016 h post-dose",0.04 ng/mL
same,concentration at 1 h,"human, in vivo, sc, 4 mg, Measured serum anastrozole, median, 1 h post-dose",0.32 ng/mL
same,concentration at 2 h,"human, in vivo, sc, 4 mg, Measured serum anastrozole, median, 2 h post-dose",0.62 ng/mL
same,concentration at 4 h,"human, in vivo, sc, 4 mg, Measured serum anastrozole, median, 4 h post-dose",1.12 ng/mL
same,concentration at 6 h,"human, in vivo, sc, 4 mg, Measured serum anastrozole, median, 6 h post-dose",3.08 ng/mL
same,concentration at 8 h,"human, in vivo, sc, 4 mg, Measured serum anastrozole, median, 8 h post-dose",3.5 ng/mL
same,concentration at 12 h,"human, in vivo, sc, 4 mg, Measured serum anastrozole, median, 12 h post-dose",4.32 ng/mL
same,concentration at 24 h,"human, in vivo, sc, 4 mg, Measured serum anastrozole, median",4.96 ng/mL
same,concentration at 48 h,"human, in vivo, sc, 4 mg, Measured serum anastrozole, median, 48 h post-dose",5.05 ng/mL
same,concentration at 72 h,"human, in vivo, sc, 4 mg, Measured serum anastrozole, median, 72 h post-dose",4.92 ng/mL
same,concentration at 96 h,"human, in vivo, sc, 4 mg, Measured serum anastrozole, median, 96 h post-dose",4.6 ng/mL
same,concentration at 168 h,"human, in vivo, sc, 4 mg, Measured serum anastrozole, median, 168 h post-dose",3.58 ng/mL
same,concentration at 504 h,"human, in vivo, sc, 4 mg, Measured serum anastrozole, median, 504 h post-dose",1.36 ng/mL
same,concentration at 1008 h,"human, in vivo, sc, 4 mg, Measured serum anastrozole, median, 1008 h post-dose",0.4 ng/mL
same,concentration at 1344 h,"human, in vivo, sc, 4 mg, Measured serum anastrozole, median, 1344 h post-dose",0.16 ng/mL
same,concentration at 2016 h,"human, in vivo, sc, 4 mg, plasma anastrozole concentration after 12 weeks, below limit of quantitation in most participants after 12 weeks",< 0.1 ng/mL
same,Measured serum anastrozole,"individual subject, 1 h post-dose, 60 min",0.215 ng/mL and 0.525 ng/mL and 0.218 ng/mL and 0.515 ng/mL and 0.394 ng/mL and 0.127 ng/mL and 0.855 ng/mL and 0.321 ng/mL and 0.243 ng/mL and 0.751 ng/mL
same,Measured serum anastrozole,"individual subject, 2 h post-dose, 120 min",0.404 ng/mL and 0.615 ng/mL and 1.30 ng/mL and 0.887 ng/mL and 0.831 ng/mL and 0.306 ng/mL and 1.04 ng/mL and 0.596 ng/mL and 0.509 ng/mL and 0.180 ng/mL and 1.02 ng/mL
same,Measured serum anastrozole,"individual subject, 4 h post-dose, 240 min",1.03 ng/mL and 2.97 ng/mL and 2.23 ng/mL and 0.902 ng/mL and 1.50 ng/mL and 0.582 ng/mL and 2.11 ng/mL
same,Measured serum anastrozole,"individual subject, 6 h post-dose, 360 min",3.11 ng/mL and 3.07 ng/mL and 3.42 ng/mL (2×) and 1.63 ng/mL and 3.21 ng/mL and 1.62 ng/mL and 0.651 ng/mL
same,Measured serum anastrozole,"individual subject, 8 h post-dose, 480 min",4.28 ng/mL and 3.41 ng/mL and 3.48 ng/mL and 4.75 ng/mL and 4.16 ng/mL and 2.18 ng/mL and 3.66 ng/mL and 3.33 ng/mL and 1.06 ng/mL and 3.99 ng/mL
same,Measured serum anastrozole,"individual subject, 12 h post-dose, 720 min",5.13 ng/mL and 3.27 ng/mL and 4.42 ng/mL and 3.87 ng/mL and 3.32 ng/mL and 4.86 ng/mL and 4.18 ng/mL and 2.25 ng/mL
same,Measured serum anastrozole,"individual subject, 48 h post-dose, 2880 min",3.95 ng/mL and 5.85 ng/mL and 5.58 ng/mL and 6.07 ng/mL and 4.85 ng/mL and 3.31 ng/mL and 5.28 ng/mL
same,Measured serum anastrozole,"individual subject, 72 h post-dose, 4320 min",4.72 ng/mL and 5.16 ng/mL and 5.00 ng/mL and 6.29 ng/mL and 5.68 ng/mL and 4.76 ng/mL and 3.66 ng/mL and 4.85 ng/mL
same,Measured serum anastrozole,"individual subject, 96 h post-dose, 5760 min",4.12 ng/mL and 4.67 ng/mL and 5.17 ng/mL
same,Measured serum anastrozole,"individual subject, 168 h post-dose, 10080 min",4.35 ng/mL
same,Measured serum anastrozole,"individual subject, 504 h post-dose, 30240 min",1.70 ng/mL and 1.83 ng/mL and 1.59 ng/mL
same,Measured serum anastrozole,"individual subject, 1008 h post-dose, 60480 min",0.332 ng/mL and 0.665 ng/mL and 0.505 ng/mL and 0.624 ng/mL
same,Measured serum anastrozole,"individual subject, 1344 h post-dose, 80640 min",0.144 ng/mL and 0.279 ng/mL
same,Measured serum anastrozole,"individual subject, 1680 h post-dose, 100800 min",0.143 ng/mL
same,"Measured serum anastrozole, mean","mean, pre-dose",0.00 ng/mL
same,"Measured serum anastrozole, median","median, pre-dose",0.00 ng/mL
same,"average Cmax, plasma anastrozole",plasma,5.30 ng/mL
same,"average terminal half-life, anastrozole",plasma,336 h
same,median Tmax for plasma anastrozole,"plasma, post-dose",48 h
